From article PMC6749073 (Frontiers in Pharmacology, 2019)

Experiments:
A549 = assay: MTT cell viability assay, A549; format: cell-based, human; details: 48 h
Protocol: (§1) Cells were seeded at a density of 1 × 10^4 cells per well in 96-well plates. The following day, these cells were washed with PBS and exposed to different concentrations of testing compounds in culture medium for 48 h. MTT solution (10 μl at 5 mg/ml) was added to each well. After 4 h of incubation at 37°C, the medium was removed, and the insoluble precipitate was dissolved in 100 μl DMSO (Sigma, St. Louis, MO, USA). The absorbance of the dissolved solution at 490 nm was measured using a microplate reader (TECAN A-5082; Megllan, Austria). Cell viability percentages were calculated by dividing the mean optical density (OD) of compound-containing wells by that of the control wells. Each experiment was replicated three times. The IC50 of testing drugs was calculated with Statistical Product and Service Solutions software (SPSS, version 16.0).

normal ICR mice = assay: LD50 in normal ICR mice; format: in vivo; details: tail vein injection
Protocol: (§2) After injection, the animals’ condition was monitored every day for over 1 week by an observer who was blinded to the dose and drug allocation.
(§3) Estimates for ED50 and LD50 were calculated through nonlinear regression, data were fitted to a sigmoidal dose-response relationship in Prism (version 4.0a; GraphPad Software, Inc., San Diego, CA). The data were fitted to the equation:
(§4) Y=Ymin+Ymax−Ymin/1+10^(LogED50−X)∗HillSlope
(§5) where X is the logarithm of concentration, and Y is the response.

A549/DDP xenograft tumor = details: diplatin 120 mg/kg vs DDP 6 mg/kg and CBP 60 mg/kg
Protocol: Cells in logarithmic growth were washed with PBS and suspended in serum-free medium. Portions of the suspension (5 × 10^6 cells in 0.1 ml/mouse) were mixed at a 3:1 ratio with Matrigel basement membrane matrix and injected subcutaneously into the mice. Following 2 weeks of growth, tumor tissues were cut into multiple 2 × 2 × 2 mm^3 pieces and implanted using a range trocar subcutaneously (s.c. injection) into the left forepaw armpit of each mouse ([Jiang et al., 2017]). Treatment with pharmacology was started when the tumors reached an average volume of 100–200 mm^3. The mice were randomly divided into six groups (n = 14/group).
Body weight and tumor size were assessed every 3 days. Tumor size was measured using a caliper, the volumes were calculated according to the following standard formula: V = (L × W^2)/2 (V = tumor volume, L = largest diameter of tumor, W = smallest diameter of tumor). On day 25, all mice were sacrificed by cervical dislocation, and the tumors were removed and weighed.

HCC827 = assay: MTT cell viability assay, HCC827; format: cell-based, human; details: 48 h
Protocol: as §1

H1299 = assay: MTT cell viability assay, H1299; format: cell-based, human; details: 48 h
Protocol: as §1

[1] = test system: A549, NCI-H292, NCI-H460, and LTEP-A-2 xenograft models; assay: ED50 (50% reduction of xenograft tumor volume) in nude mice; format: in vivo; details: dose reducing xenograft tumor volume by 50%; average over A549, NCI-H292, NCI-H460, and LTEP-A-2 xenograft models
Protocol: as §2, §3, §4, §5

H292 = assay: MTT cell viability assay, H292; format: cell-based, human; details: 48 h
Protocol: as §1

[2] = Pharmacokinetic and toxicokinetic characterization in Beagle dogs; format: in vivo; details: single dose 10, 20, 40 mg/kg
From the text: Furthermore, AI was employed to evaluate the accumulated toxicity of the two complexes.

[3] = test system: VEGF, p53, and Bax expression in the xenograft A549 and H292 lung tumor tissue; assay: Immunohistochemistry of xenograft tumor sections; format: in vivo, mice
Protocol: All tumor tissues were harvested and fixed in 4% buffered formalin. After 72 h, tumor tissues were embedded in paraffin and cut into 4 μm sections for immunohistochemistry assays. The streptavidin–biotin complex (SABC) method was used for immunohistochemical staining. Lung tissue sections from mice with no intervention were used as controls. The section slides were baked in an oven at 60°C for 1 h, washed in xylene, and hydrated in different concentrations of alcohol. Subsequently, endogenous peroxidase activity was quenched with 3% hydrogen peroxide for 10 min. To unmask the antigen, the slides were submerged in citrate buffer (0.01 M, pH 6.0) at 95°C for 5 min. The slides were blocked for 20 min with normal goat serum blocking solution. Primary antibodies were incubated at 4°C overnight. Primary antibody dilutions were as follows: 1:200 for VEGF, p53, and Bax. Immunocomplexes were visualized with 3,3′-diaminobenzidine (DAB), and the density was measured with the DP2-BSW software (Olympus, Tokyo, Japan).

Which IC50 (A549) does the source give for `CCN(CC)CCCCC1C(=O)[O][Pt][O]C1=O.N[C@@H]1CCCC[C@H]1N.O=P(O)(O)O` [Diplatin] here?
Its IC50 is 102 µM.

What about the “Mice LD50” value (normal ICR mice) of the same molecule?
The value was 496 mg/kg.

And the “antitumor activity in A549/DDP xenograft tumor” value (A549/DDP xenograft tumor)?
The value was “more potent antitumor activities than DDP and CBP”.

What about the IC50 (HCC827) of the same molecule?
Its IC50 is 25 µM.

And the IC50 (H1299)?
The IC50 was 57.5 µM.

And the “Mice ED50” value [1]?
The value was 52.0 mg/kg.

And the IC50 (H292)?
Its IC50 is 30.9 µM.

What about the “time of maximum platinum levels in the plasma” value [2] of the same molecule?
The value was 0.33 h.

What about the “VEGF expression in tumor sections compared to the control” value ([3]; 120 mg/kg) of the same molecule?
Its value is “lower expression of VEGF”.

What about the “p53 and Bax expression in the A549 and H292 tumor sections” value ([3]; 120 mg/kg) of the same molecule?
Its value is “significantly enhanced”.

And the “effect on p53 expression in tumor sections compared with DDP and CBP treatment” value ([3]; diplatin 120 mg/kg vs DDP and CBP)?
The value was “nearly two-fold more potent”.
